For one test, the target named is T1, human CYP11B1 (Homo sapiens, UniProt P15538).
T1 construct: expressed in transfected cells
T1 sequence (P15538 25-503): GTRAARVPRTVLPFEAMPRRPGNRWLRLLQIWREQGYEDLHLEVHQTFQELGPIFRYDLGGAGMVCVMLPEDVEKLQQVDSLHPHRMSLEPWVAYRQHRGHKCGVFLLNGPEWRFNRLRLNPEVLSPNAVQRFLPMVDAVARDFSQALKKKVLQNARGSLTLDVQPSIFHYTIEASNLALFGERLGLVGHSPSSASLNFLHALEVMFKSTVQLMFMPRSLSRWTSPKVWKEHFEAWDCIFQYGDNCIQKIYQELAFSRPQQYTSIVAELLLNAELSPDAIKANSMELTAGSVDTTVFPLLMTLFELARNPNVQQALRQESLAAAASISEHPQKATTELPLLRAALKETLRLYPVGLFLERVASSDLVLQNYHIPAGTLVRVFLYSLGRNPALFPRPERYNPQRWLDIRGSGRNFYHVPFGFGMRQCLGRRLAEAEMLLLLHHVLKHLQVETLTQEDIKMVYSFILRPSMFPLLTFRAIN
In words: Inhibition of hCYP11B1 in transfected V79 cells. Type of test: cell-based. The settings on record: hamster V79 cells expressing human CYP11B1; substrate 11-deoxycortisol 200 nM. The gist of the method: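 Reactions started with 200 nM 11-deoxycortisol, ran for 30 min and were stopped with ethyl acetate, after a 2 h compound preincubation. The host was stably transfected V79 hamster cells carrying human CYP11B1 plus rat P450 reductase. Percent inhibition, from LC-MS/MS or HPLC (260 nm) quantitation of substrate and product, gave the IC50.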

The next test has as its target T2, human CYP11B2 (Homo sapiens, UniProt P19099).
T2 construct: expressed in transfected cells
T2 sequence (P19099 25-503): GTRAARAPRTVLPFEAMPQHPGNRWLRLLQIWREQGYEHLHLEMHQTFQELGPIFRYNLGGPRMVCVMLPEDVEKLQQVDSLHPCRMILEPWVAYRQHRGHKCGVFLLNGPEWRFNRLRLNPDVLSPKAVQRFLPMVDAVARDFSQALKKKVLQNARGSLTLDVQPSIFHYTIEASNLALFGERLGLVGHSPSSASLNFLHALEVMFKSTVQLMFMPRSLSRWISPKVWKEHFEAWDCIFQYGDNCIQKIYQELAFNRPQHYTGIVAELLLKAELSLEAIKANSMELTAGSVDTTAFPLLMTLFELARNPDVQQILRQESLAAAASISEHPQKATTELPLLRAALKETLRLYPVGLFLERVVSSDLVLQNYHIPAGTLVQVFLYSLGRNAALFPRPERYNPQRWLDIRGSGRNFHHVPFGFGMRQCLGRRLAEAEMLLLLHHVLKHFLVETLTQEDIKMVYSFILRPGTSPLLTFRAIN
In words: Inhibition of hCYP11B2 in transfected V79 cells. Type of test: cell-based. Conditions: hamster V79 cells expressing human CYP11B2; substrate 11-deoxycorticosterone 200 nM. The method, boiled down:
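The substrate (200 nM, 30 min) was added after a 2 hour compound pre-incubation in lentivirus-transduced V79 cells stably expressing human CYP11B2 plus rat NADPH-P450 reductase.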

Drawing on US20260092074A1, “Annelated Pyridines as Steroidogenesis Inhibitors, Preparation Method and Use Thereof” (Guangzhou Vinnocent Pharmaceutical Limited, priority 2022, published 2026), this text covers IC50 for 30 molecules.

What is called IC50 is the point on the concentration scale where inhibition reaches its midpoint. A high value points to weaker potency in that assay.

Structures are written as SMILES.

As for `COc1cccc(C(=O)N2CCc3c(C4=CCN(C#N)CC4)cncc32)c1` [C82, 4-(1-(3-Methoxybenzoyl)-2,3-dihydro-1H-pyrrolo[2,3-c]pyridin-4-yl)-3,6-dihydropyridine-1 (2H)-carbonitrile], the IC50 at human CYP11B1 worked out at 537 nM; against human CYP11B2, 3 nM.
Take `COc1cccc(C(=O)N2CCc3c(N4CCN(C#N)CC4)cncc32)c1` [C83, 4-(1-(3-Methoxybenzoyl)-2,3-dihydro-1H-pyrrolo[2,3-c]pyridin-4-yl)piperazine-1-carbonitrile]: the values for the IC50 at human CYP11B1 and at human CYP11B2 were 672 nM and 6 nM, respectively.
For `N#Cc1ccc(-c2cncc3c2ccn3S(=O)(=O)c2ccc([N+](=O)[O-])cc2)cc1` [E1, 4-(1-((4-Nitrophenyl)sulfonyl)-1H-pyrrolo[2,3-c]pyridin-4-yl)benzonitrile] the same measures were 0.5 nM and 0.5 nM.
The matching figures for `Cc1ccc(S(=O)(=O)n2ccc3c(-c4ccc(C#N)cc4)cncc32)cc1` [E2, 4-(1-Tosyl-1H-pyrrolo[2,3-c]pyridin-4-yl)benzonitrile]: 0.4 nM and 0.5 nM.
For `N#Cc1ccc(-c2cncc3c2ccn3S(=O)(=O)c2ccccc2)cc1` [E3, 4-(1-(Phenylsulfonyl)-1H-pyrrolo[2,3-c]pyridin-4-yl)benzonitrile] the same measures were 0.3 nM and 0.4 nM.
As to `Cc1cccc(S(=O)(=O)n2ccc3c(-c4ccc(C#N)cc4)cncc32)c1` [E4, 4-(1-(m-Tolylsulfonyl)-1H-pyrrolo[2,3-c]pyridin-4-yl)benzonitrile], the results for the IC50 against human CYP11B1 and against human CYP11B2 were 0.3 nM and 0.4 nM, respectively.
Turning to `N#Cc1ccc(-c2cncc3c2ccn3S(=O)(=O)c2cccc(C(F)(F)F)c2)cc1` [E5, 4-(1-((3-(Trifluoromethyl)phenyl)sulfonyl)-1H-pyrrolo[2,3-c]pyridin-4-yl)benzonitrile], the 50% inhibitory concentration (IC50) at human CYP11B1 was 0.6 nM; at human CYP11B2, 0.3 nM.
The matching figures for `N#Cc1ccc(-c2cncc3c2ccn3S(=O)(=O)c2ccc(F)cc2)cc1` [E6, 4-(1-((4-Fluorophenyl)sulfonyl)-1H-pyrrolo[2,3-c]pyridin-4-yl)benzonitrile]: 0.3 nM and 0.13 nM.
The matching figures for `N#Cc1ccc(-c2cncc3c2ccn3S(=O)(=O)c2ccc(C(F)(F)F)cc2)cc1` [E7, 4-(1-((4-(Trifluoromethyl)phenyl)sulfonyl)-1H-pyrrolo[2,3-c]pyridin-4-yl)benzonitrile]: 0.2 nM and 0.1 nM.
The matching figures for `N#Cc1ccc(-c2cncc3c2ccn3S(=O)(=O)c2ccc(Cl)cc2)cc1` [E8, 4-(1-((4-Chlorophenyl)sulfonyl)-1H-pyrrolo[2,3-c]pyridin-4-yl)benzonitrile]: 0.6 nM and 0.1 nM.
In the case of `COc1ccc(S(=O)(=O)n2ccc3c(-c4ccc(C#N)cc4)cncc32)cc1` [E9, 4-(1-((4-Methoxyphenyl)sulfonyl)-1H-pyrrolo[2,3-c]pyridin-4-yl)benzonitrile], the IC50 worked out at 0.3 nM against human CYP11B1 and 0.1 nM on human CYP11B2.
Take `N#Cc1ccc(-c2cncc3c2ccn3S(=O)(=O)c2cccc(C#N)c2)cc1` [E10, 3-((4-(4-Cyanophenyl)-1H-pyrrolo[2,3-c]pyridin-1-yl)sulfonyl)benzonitrile]: the results for the IC50 at human CYP11B1 and against human CYP11B2 were 0.3 nM and 0.6 nM, respectively.
The matching figures for `N#Cc1ccc(-c2cncc3c2ccn3S(=O)(=O)c2cccc(Cl)c2)cc1` [E11, 4-(1-((3-Chlorophenyl)sulfonyl)-1H-pyrrolo[2,3-c]pyridin-4-yl)benzonitrile]: 0.2 nM and 0.1 nM.
The matching figures for `N#Cc1ccc(-c2cncc3c2ccn3S(=O)(=O)c2cccc(F)c2)cc1` [E12, 4-(1-((3-Fluorophenyl)sulfonyl)-1H-pyrrolo[2,3-c]pyridin-4-yl)benzonitrile]: 0.5 nM and 0.3 nM.
For `N#Cc1ccc(-c2cncc3c2ccn3S(=O)(=O)c2cccc([N+](=O)[O-])c2)cc1` [E13, 4-(1-((3-Nitrophenyl)sulfonyl)-1H-pyrrolo[2,3-c]pyridin-4-yl)benzonitrile] the same measures were 0.5 nM and 0.3 nM.
Take `N#Cc1ccc(-c2cncc3c2ccn3S(=O)(=O)c2ccc(C#N)cc2)cc1` [E14, 4-((4-(4-Cyanophenyl)-1H-pyrrolo[2,3-c]pyridin-1-yl)sulfonyl)benzonitrile]: the values for the IC50 at human CYP11B1 and against human CYP11B2 were 0.5 nM and 0.08 nM, respectively.
For `N#Cc1ccc(-c2cncc3c2ccn3S(=O)(=O)c2cccc3ccccc23)cc1` [E15, 4-(1-(Naphthalen-1-ylsulfonyl)-1H-pyrrolo[2,3-c]pyridin-4-yl)benzonitrile] the same measures were 0.7 nM and 0.4 nM.
For `N#Cc1ccc(-c2cncc3c2ccn3S(=O)(=O)c2ccc3ccccc3c2)cc1` [E16, 4-(1-(Naphthalen-2-ylsulfonyl)-1H-pyrrolo[2,3-c]pyridin-4-yl)benzonitrile] the same measures were 0.6 nM and 0.1 nM.
The matching figures for `N#Cc1ccc(-c2cncc3c2ccn3S(=O)(=O)c2cccs2)cc1` [E17, 4-(1-(Thiophen-2-ylsulfonyl)-1H-pyrrolo[2,3-c]pyridin-4-yl)benzonitrile]: 0.7 nM and 0.1 nM.
On to `N#Cc1ccc(-c2cncc3c2ccn3S(=O)(=O)c2ccc(Cl)nc2)cc1` [E18, 4-(1-((6-Chloropyridin-3-yl)sulfonyl)-1H-pyrrolo[2,3-c]pyridin-4-yl)benzonitrile], for which the IC50 against human CYP11B1 turned out to be 3.8 nM; at human CYP11B2, 1.2 nM.
For `N#Cc1ccc(-c2cncc3c2ccn3C(=O)c2c(F)c(F)c(F)c(F)c2F)cc1` [E19, 4-(1-(Perfluorobenzoyl)-1H-pyrrolo[2,3-c]pyridin-4-yl)benzonitrile] the same measures were 2.9 nM and 2.5 nM.
For `N#Cc1ccc(-c2cncc3c2ccn3C(=O)c2ccc(C(F)(F)F)cc2)cc1` [E20, 4-(1-(4-(Trifluoromethyl)benzoyl)-1H-pyrrolo[2,3-c]pyridin-4-yl)benzonitrile] the same measures were 65 nM and 0.8 nM.
With `N#Cc1ccc(-c2cncc3c2ccn3C(=O)c2ccccc2I)cc1` [E21, 4-(1-(2-iodobenzoyl)-1H-pyrrolo[2,3-c]pyridin-4-yl)benzonitrile], the IC50 on human CYP11B1 was 5 nM; against human CYP11B2, 4 nM.
The matching figures for `N#Cc1ccc(-c2cncc3c2ccn3C(=O)c2cccc([N+](=O)[O-])c2)cc1` [E22, 4-(1-(3-Nitrobenzoyl)-1H-pyrrolo[2,3-c]pyridin-4-yl)benzonitrile]: 21 nM and 0.6 nM.
The matching figures for `N#Cc1ccc(-c2cncc3c2ccn3C(=O)c2cccc(C(F)(F)F)c2)cc1` [E23, 4-(1-(3-(Trifluoromethyl)benzoyl)-1H-pyrrolo[2,3-c]pyridin-4-yl)benzonitrile]: 79 nM and 0.8 nM.
For `COc1cccc(C(=O)n2ccc3c(-c4ccc(C#N)cc4)cncc32)c1` [E24, 4-(1-(3-Methoxybenzoyl)-1H-pyrrolo[2,3-c]pyridin-4-yl)benzonitrile] the same measures were 82 nM and 1.9 nM.
Take `COc1ccccc1C(=O)n1ccc2c(-c3ccc(C#N)cc3)cncc21` [E25, 4-(1-(2-Methoxybenzoyl)-1H-pyrrolo[2,3-c]pyridin-4-yl)benzonitrile]: the figures for the IC50 at human CYP11B1 and on human CYP11B2 were 98 nM and 2.1 nM, respectively.
The matching figures for `N#Cc1ccc(-c2cncc3c2ccn3C(=O)c2ccccc2C(F)(F)F)cc1` [E26, 4-(1-(2-(Trifluoromethyl)benzoyl)-1H-pyrrolo[2,3-c]pyridin-4-yl)benzonitrile]: 88 nM and 3.9 nM.
For `Cc1ccccc1C(=O)n1ccc2c(-c3ccc(C#N)cc3)cncc21` [E27, 4-(1-(2-Methylbenzoyl)-1H-pyrrolo[2,3-c]pyridin-4-yl)benzonitrile] the same measures were 73 nM and 1.5 nM.
For `N#Cc1ccc(-c2cncc3c2ccn3C(=O)c2ccccc2F)cc1` [E28, 4-(1-(2-Fluorobenzoyl)-1H-pyrrolo[2,3-c]pyridin-4-yl)benzonitrile] the same measures were 17 nM and 2.1 nM.
